For the test, the target named is T1, ROS1 (Homo sapiens, UniProt P08922).
T1 construct: purchased Thermo Fisher Scientific (Life Technologies) SelectScreen
The test can be described thus: SelectScreen Z'LYTE. The format is biochemical. In outline: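 SelectScreen broad panel; activity (Z'LYTE, Adapta) plus binding formats. ATP: Km app for CSF1R Z'LYTE; 10 for CAMK1 Adapta. Readout = % per kinase.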

T1 sequence (P08922 28-2347): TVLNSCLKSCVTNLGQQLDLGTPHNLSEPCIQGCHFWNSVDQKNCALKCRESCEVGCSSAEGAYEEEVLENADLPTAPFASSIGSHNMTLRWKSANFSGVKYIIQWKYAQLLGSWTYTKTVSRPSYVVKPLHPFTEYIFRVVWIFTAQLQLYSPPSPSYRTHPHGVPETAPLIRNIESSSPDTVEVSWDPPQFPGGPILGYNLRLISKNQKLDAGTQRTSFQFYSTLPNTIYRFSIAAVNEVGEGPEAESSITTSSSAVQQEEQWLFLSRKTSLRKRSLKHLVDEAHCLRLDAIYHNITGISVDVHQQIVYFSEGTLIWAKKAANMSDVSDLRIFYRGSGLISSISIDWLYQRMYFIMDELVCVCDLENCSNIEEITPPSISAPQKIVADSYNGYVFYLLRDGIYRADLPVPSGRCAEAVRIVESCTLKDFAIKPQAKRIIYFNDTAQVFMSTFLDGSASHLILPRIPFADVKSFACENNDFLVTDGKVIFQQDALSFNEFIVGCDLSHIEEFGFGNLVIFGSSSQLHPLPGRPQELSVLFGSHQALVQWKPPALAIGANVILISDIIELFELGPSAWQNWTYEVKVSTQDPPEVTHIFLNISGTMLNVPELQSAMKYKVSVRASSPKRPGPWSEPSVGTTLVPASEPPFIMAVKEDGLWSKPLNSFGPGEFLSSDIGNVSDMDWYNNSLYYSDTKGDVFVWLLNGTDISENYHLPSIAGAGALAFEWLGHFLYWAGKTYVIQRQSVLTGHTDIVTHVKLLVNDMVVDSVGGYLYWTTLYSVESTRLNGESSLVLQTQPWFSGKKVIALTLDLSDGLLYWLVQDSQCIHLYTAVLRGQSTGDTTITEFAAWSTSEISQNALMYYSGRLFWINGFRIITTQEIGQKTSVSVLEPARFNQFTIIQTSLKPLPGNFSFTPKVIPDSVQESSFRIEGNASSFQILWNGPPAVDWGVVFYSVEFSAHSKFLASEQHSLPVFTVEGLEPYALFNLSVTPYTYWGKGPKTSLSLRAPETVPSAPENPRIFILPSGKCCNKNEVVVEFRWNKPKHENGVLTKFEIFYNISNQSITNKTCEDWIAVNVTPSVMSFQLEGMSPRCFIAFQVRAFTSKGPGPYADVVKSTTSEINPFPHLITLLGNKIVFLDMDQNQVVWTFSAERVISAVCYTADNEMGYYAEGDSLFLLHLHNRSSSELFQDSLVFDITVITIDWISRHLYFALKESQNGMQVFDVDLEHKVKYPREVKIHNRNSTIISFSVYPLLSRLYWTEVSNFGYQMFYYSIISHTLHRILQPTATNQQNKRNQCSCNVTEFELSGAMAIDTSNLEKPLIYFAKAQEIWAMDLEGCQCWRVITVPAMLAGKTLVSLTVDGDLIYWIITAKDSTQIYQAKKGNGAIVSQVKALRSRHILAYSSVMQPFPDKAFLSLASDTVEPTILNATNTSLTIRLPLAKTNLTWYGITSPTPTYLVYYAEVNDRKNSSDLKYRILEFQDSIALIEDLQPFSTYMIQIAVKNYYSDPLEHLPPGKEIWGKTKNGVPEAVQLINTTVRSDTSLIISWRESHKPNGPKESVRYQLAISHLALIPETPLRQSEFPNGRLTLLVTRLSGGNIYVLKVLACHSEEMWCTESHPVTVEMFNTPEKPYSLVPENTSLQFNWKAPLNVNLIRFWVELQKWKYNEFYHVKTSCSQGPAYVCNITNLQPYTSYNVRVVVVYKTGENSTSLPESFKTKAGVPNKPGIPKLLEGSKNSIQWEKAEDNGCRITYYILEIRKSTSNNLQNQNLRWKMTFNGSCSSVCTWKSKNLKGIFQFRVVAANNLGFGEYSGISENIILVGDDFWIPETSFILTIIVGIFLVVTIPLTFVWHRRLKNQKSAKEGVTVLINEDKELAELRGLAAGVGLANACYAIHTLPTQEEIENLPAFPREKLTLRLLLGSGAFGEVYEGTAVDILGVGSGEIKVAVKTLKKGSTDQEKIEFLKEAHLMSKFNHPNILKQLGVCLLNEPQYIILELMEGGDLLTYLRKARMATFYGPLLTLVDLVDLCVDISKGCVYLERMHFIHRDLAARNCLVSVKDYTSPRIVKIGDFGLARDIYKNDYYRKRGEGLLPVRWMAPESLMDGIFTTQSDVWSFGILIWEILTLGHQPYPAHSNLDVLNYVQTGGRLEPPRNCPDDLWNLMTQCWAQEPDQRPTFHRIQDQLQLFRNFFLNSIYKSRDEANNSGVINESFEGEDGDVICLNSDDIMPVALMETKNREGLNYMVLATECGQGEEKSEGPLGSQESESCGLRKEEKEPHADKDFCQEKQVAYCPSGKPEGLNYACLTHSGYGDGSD

By inhibition is commonly meant the drop in the measured response relative to a control, in per cent. A low value points to little suppression. `CN(C(=O)CN1CCOCC1)c1ccc2sc3c(-c4cccc5c(=O)cc(N6CC7CCC(C6)O7)oc45)cccc3c2c1` [NU5455]: the inhibition at 1 µM is 8%.

For the origin of these results see publication PMC6934184, “Selective DNA-PKcs inhibition extends the therapeutic index of localized radiotherapy and chemotherapy” (The Journal of Clinical Investigation, 2019).
